In PubChem BioAssay (NCI) one finds TGI and GI50 data, which are given here for 23 compounds.

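Results reflect a 48-hour exposure of cells in 96-well plates to compound at five concentrations. Abbreviation: GI50, concentration required for 50% inhibition of growth. Definition used: TGI = concentration required for complete inhibition of growth.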 Where a SMILES comes first, the peptide text is derived from it. [ ]: non-standard residue; d: D form. The star is where a group is joined. ξ: configuration not given here. NMeY = CN[C@@H](Cc1ccc(O)cc1)C(=O)O; Cbz = O=C(OCc1ccccc1)*; ξA = CC(N)C(=O)O

Among the test systems are MCF7 breast; RXF 393 renal; SK-MEL-5 melanoma; OVCAR-8 ovarian; SN12C renal; HS 578T breast; UO-31 renal; HCT-15 colon; MDA-MB-435; SW-620 colon.
What all share (assay): NCI-60 cell line screen, 48 h

On to `CCOC(=O)/C=C1\Nc2ccccc2C12CCc1c([nH]c3ccccc13)C2C(=O)OCC` (stereo unspecified), for which the TGI with MCF7 breast, in the assay on RXF 393 renal, in the assay on SK-MEL-5 melanoma, in the assay with OVCAR-8 ovarian, in the assay with SN12C renal and in the assay with HS 578T breast was over 100 µM in each case. Further, the TGI in the assay with UO-31 renal is over 100 µM; in the assay with HCT-15 colon, over 100 µM; with MDA-MB-435, 40.5 µM; with SW-620 colon it was over 100 µM.
As to `C#CC(C)(C)Oc1cc(OC)c2c(=O)c3ccccc3n(C)c2c1`, the TGI was over 100 µM in the assay with MCF7 breast; 84.8 µM in the assay with RXF 393 renal; 23.4 µM with SK-MEL-5 melanoma; 68 µM in the assay on OVCAR-8 ovarian; 49.9 µM in the assay on SN12C renal; 60.6 µM in the assay with HS 578T breast. Besides, the TGI with UO-31 renal is 22.5 µM; in the assay on HCT-15 colon, 44.5 µM; with MDA-MB-435 it was 26.9 µM; in the assay on SW-620 colon, over 100 µM.
For the compound `Cc1cccc(NC(=O)CC(=O)N2N=C(N3c4ccccc4Sc4ccccc43)CC2c2ccccc2)c1` (stereo unspecified), the TGI in the assay with MCF7 breast, in the assay with RXF 393 renal, in the assay with SK-MEL-5 melanoma, in the assay on OVCAR-8 ovarian, in the assay on SN12C renal and with HS 578T breast was over 100 µM in each case. The TGI in the assay on UO-31 renal, in the assay with HCT-15 colon, in the assay on MDA-MB-435 and in the assay on SW-620 colon was over 100 µM each time.
Consider `COc1cc(S(=O)(=O)Nc2nc(-c3ccc(N4C(=O)/C(=C/c5ccccc5)N=C4c4ccccc4)cc3)cs2)ccc1Cl`, for which the TGI was over 100 µM in the assay with MCF7 breast; 91.7 µM in the assay on RXF 393 renal; over 100 µM with SK-MEL-5 melanoma; over 100 µM in the assay with OVCAR-8 ovarian; over 100 µM in the assay on SN12C renal; 93.6 µM with HS 578T breast. Also, the TGI with UO-31 renal, in the assay with HCT-15 colon, in the assay on MDA-MB-435 and in the assay on SW-620 colon was over 100 µM each time.
For the compound `CC1CN=C(c2cccc(OCc3ccc(COc4cccc(C5=NCC(C)N5)c4)cc3)c2)N1` (stereo unspecified), the TGI in the assay with MCF7 breast, in the assay on RXF 393 renal, with SK-MEL-5 melanoma, in the assay on OVCAR-8 ovarian, with SN12C renal and in the assay on HS 578T breast was over 100 µM in each case. For the same compound, the TGI in the assay with UO-31 renal, with HCT-15 colon, with MDA-MB-435 and in the assay on SW-620 colon was over 100 µM throughout.
In the case of `CC(=O)N[C@@H](Cc1ccc(O)cn1)C(=O)NCc1ccc2c(c1)OCO2`, the TGI in the assay with MCF7 breast, with RXF 393 renal, in the assay with SK-MEL-5 melanoma, with OVCAR-8 ovarian, with SN12C renal and with HS 578T breast was over 100 µM in each case. Besides, the TGI in the assay with UO-31 renal, in the assay with HCT-15 colon, with MDA-MB-435 and with SW-620 colon was over 100 µM throughout.
Consider `c1ccc2c(c1)CC1c3[nH]c4ccccc4c3CCN21` (stereo unspecified), for which the TGI in the assay with MCF7 breast, in the assay with RXF 393 renal, in the assay on SK-MEL-5 melanoma, with OVCAR-8 ovarian, in the assay on SN12C renal and in the assay on HS 578T breast was over 10 µM in each case. Further, the TGI with UO-31 renal, in the assay on HCT-15 colon, in the assay on MDA-MB-435 and with SW-620 colon was over 10 µM each time.
`CC1=NNC(N)=N/C1=C/C(Sc1ccc(Cl)cc1)c1cccs1` (stereo unspecified): the TGI in the assay with MCF7 breast was 20.4 µM; with RXF 393 renal it was 34.7 µM; in the assay with SK-MEL-5 melanoma it was 25.6 µM; with OVCAR-8 ovarian, 57.2 µM; in the assay with SN12C renal it was 99.7 µM; with HS 578T breast, over 100 µM. The TGI in the assay on UO-31 renal turned out to be 17.7 µM; in the assay with HCT-15 colon, 30 µM; with MDA-MB-435, 55.3 µM; in the assay with SW-620 colon, 41.7 µM.
Regarding `COc1ccc(C[C@@H](C(=O)NCC(N)=O)N(C)C(=O)[C@@H]2CCCN2C(=O)[C@H](CC(C)C)NC(=O)C(C)NC(=O)OCc2ccccc2)cc1` (stereo partly specified) (Cbz-[ξA]LP[NMeY](Me)G-NH2), the TGI with MCF7 breast, in the assay with RXF 393 renal, in the assay on SK-MEL-5 melanoma, in the assay with OVCAR-8 ovarian, with SN12C renal and in the assay with HS 578T breast was over 100 µM each time. In addition, the TGI with UO-31 renal, in the assay with HCT-15 colon, in the assay on MDA-MB-435 and in the assay on SW-620 colon was over 100 µM in each case.
Regarding `COc1cc(C(=O)Nc2nnc(S(N)(=O)=O)s2)cc(OC)c1OC`, the TGI in the assay with MCF7 breast, in the assay on RXF 393 renal, in the assay with SK-MEL-5 melanoma, with OVCAR-8 ovarian, with SN12C renal and in the assay with HS 578T breast was over 100 µM throughout. Moreover, the TGI in the assay on UO-31 renal, with HCT-15 colon, in the assay with MDA-MB-435 and with SW-620 colon was over 100 µM in each case.
`CN(C)c1ccc(C(=NNC(=O)c2cc3ccccc3[nH]2)c2ccc(N(C)C)cc2)cc1`: the TGI was over 51 µM with MCF7 breast; 15 µM in the assay with RXF 393 renal; over 100 µM in the assay on SK-MEL-5 melanoma; over 100 µM with OVCAR-8 ovarian; over 93.9 µM with SN12C renal; 3.74 µM in the assay on HS 578T breast. Moreover, the TGI is over 59.3 µM with UO-31 renal, over 100 µM in the assay with HCT-15 colon, 0.371 µM with MDA-MB-435 and over 100 µM with SW-620 colon.
For `O=C1c2ccccc2NC2C(O)c3ccccc3N12` (stereo unspecified), the TGI with MCF7 breast, in the assay with RXF 393 renal, in the assay with SK-MEL-5 melanoma, in the assay on OVCAR-8 ovarian, with SN12C renal and in the assay with HS 578T breast was over 100 µM in each case. The TGI in the assay on UO-31 renal is over 100 µM; in the assay on HCT-15 colon, over 100 µM; in the assay with MDA-MB-435 it was 31.9 µM; in the assay with SW-620 colon it was over 100 µM.
In the case of `COc1ccc(Cn2nc(OCc3ccccn3)c3cc([N+](=O)[O-])ccc32)cc1`, the TGI in the assay with MCF7 breast, with RXF 393 renal, with SK-MEL-5 melanoma, in the assay with OVCAR-8 ovarian, with SN12C renal and in the assay on HS 578T breast was over 100 µM each time. Further, the TGI in the assay on UO-31 renal, with HCT-15 colon, in the assay on MDA-MB-435 and with SW-620 colon was over 100 µM in each case.
In the case of `O=c1oc2ccccc2cc1-c1nc2ccc([N+](=O)[O-])cc2o1`, the TGI with MCF7 breast, in the assay with RXF 393 renal, in the assay with SK-MEL-5 melanoma, in the assay on OVCAR-8 ovarian, in the assay on SN12C renal and in the assay with HS 578T breast was over 100 µM throughout. Also, the TGI in the assay on UO-31 renal, with HCT-15 colon, with MDA-MB-435 and with SW-620 colon was over 100 µM in each case.
For `O=C1c2cc3c(cc2CC12Cc1cc4c(cc1C2)CCC4)CCC3`, the TGI in the assay with MCF7 breast, with RXF 393 renal, in the assay on SK-MEL-5 melanoma, in the assay with OVCAR-8 ovarian, with SN12C renal and in the assay on HS 578T breast was over 100 µM each time. The TGI in the assay with UO-31 renal, in the assay with HCT-15 colon, with MDA-MB-435 and in the assay with SW-620 colon was over 100 µM throughout.
For `COc1cn2c(cc1=O)COc1ccc(-c3ccccc3)cc1-2`, the TGI in the assay with MCF7 breast is over 100 µM; with RXF 393 renal, over 100 µM; in the assay on SK-MEL-5 melanoma it was over 76 µM; in the assay with OVCAR-8 ovarian, over 100 µM; in the assay with SN12C renal, over 100 µM; in the assay on HS 578T breast it was over 100 µM. Besides, the TGI in the assay with UO-31 renal, in the assay on HCT-15 colon, in the assay with MDA-MB-435 and in the assay with SW-620 colon was over 100 µM in each case. Besides, the GI50 in the assay with HS 578T breast was 43.6 µM.
As for `NC(N)=N/N=C(\c1ccc(Cl)cc1)C1CC1`, the TGI in the assay with MCF7 breast was 32.5 µM; in the assay with RXF 393 renal it was over 100 µM; in the assay on SK-MEL-5 melanoma it was 29 µM; in the assay with OVCAR-8 ovarian it was 40.4 µM; with SN12C renal, 42.3 µM; with HS 578T breast, 78.3 µM. For the same compound, the TGI is 79.9 µM in the assay on UO-31 renal, 40.2 µM in the assay on HCT-15 colon, 34.7 µM in the assay on MDA-MB-435 and 35.2 µM with SW-620 colon.
As to `O=C(c1ccccc1F)c1c(NCc2ccccc2)c(=O)c1=O`, the TGI with MCF7 breast, in the assay with RXF 393 renal, in the assay with SK-MEL-5 melanoma, in the assay on OVCAR-8 ovarian, in the assay with SN12C renal and in the assay on HS 578T breast was over 100 µM in each case. Further, the TGI with UO-31 renal, with HCT-15 colon, with MDA-MB-435 and with SW-620 colon was over 100 µM in each case.
For `O=S1(=O)NNC(=NCc2ccc(F)cc2)c2ccccc21`, the TGI with MCF7 breast was over 100 µM; with RXF 393 renal it was over 69.3 µM; in the assay on SK-MEL-5 melanoma, over 100 µM; in the assay with OVCAR-8 ovarian, over 100 µM; in the assay with SN12C renal it was over 100 µM; in the assay with HS 578T breast, 49.2 µM. The TGI with UO-31 renal, with HCT-15 colon, with MDA-MB-435 and with SW-620 colon was over 100 µM in each case.
With `OC(CC(c1ccccc1)c1ccc(Cl)cc1)c1ccc(Cl)cc1` (stereo unspecified), the TGI with MCF7 breast was 86.2 µM; with RXF 393 renal, 65.8 µM; in the assay on SK-MEL-5 melanoma, 88.1 µM; with OVCAR-8 ovarian it was over 100 µM; in the assay on SN12C renal, over 100 µM; with HS 578T breast, over 100 µM. For the same compound, the TGI with UO-31 renal was over 100 µM; in the assay with HCT-15 colon it was over 100 µM; with MDA-MB-435, 91.5 µM; in the assay with SW-620 colon it was over 100 µM.
Take `Cc1ncc([N+](=O)[O-])n1CCN=[N+]=[N-]`: the TGI with MCF7 breast, in the assay on RXF 393 renal, with SK-MEL-5 melanoma, in the assay on OVCAR-8 ovarian, in the assay with SN12C renal and in the assay with HS 578T breast was over 100 µM each time. The TGI in the assay on UO-31 renal, in the assay on HCT-15 colon, in the assay on MDA-MB-435 and in the assay on SW-620 colon was over 100 µM throughout.
Turning to `Cc1cc(S(=O)(=O)Nc2n[nH]c(Nc3ccccc3)n2)c(S)cc1Cl`, the TGI in the assay on MCF7 breast, in the assay with RXF 393 renal, in the assay with SK-MEL-5 melanoma, with OVCAR-8 ovarian, in the assay on SN12C renal and in the assay on HS 578T breast was over 10 µM throughout. Besides, the TGI with UO-31 renal, in the assay with HCT-15 colon, in the assay on MDA-MB-435 and in the assay with SW-620 colon was over 10 µM each time.
Regarding `COc1cc(C2SCC(=O)N2NC(=O)c2ccc(NC(C)=O)cc2)cc(OC)c1OC` (stereo unspecified), the TGI in the assay on MCF7 breast, in the assay with RXF 393 renal, in the assay with SK-MEL-5 melanoma, with OVCAR-8 ovarian, with SN12C renal and with HS 578T breast was over 100 µM each time. For the same compound, the TGI in the assay on UO-31 renal, in the assay with HCT-15 colon, with MDA-MB-435 and in the assay on SW-620 colon was over 100 µM in each case.
